Reference: patent US10872410B2, “Methods and apparatus for assessing immune system activity and therapeutic efficacy” (Animantis, LLC, priority 2016, dated 2020)

Test system: cell population sets
Assay: Directional displacement of cell population sets measured with the immune platform (FIG. 7)
Type: cell-based
Settings: conditions unstimulated, LPS, TNF, effect of presence of the stimulus
Description: FIG. 7 is a graphical representation of the directional displacement of cell population sets as measured using an embodiment of the immune platform described herein. […]

Row | Substance | directional displacement of cell population sets
1 | lipopolysaccharide [LPS] | greatly affected
2 | tumor necrosis factor [TNF] | minimally affected
